{"source": "paper PMC4352033", "about": "“SD-208, a Novel Protein Kinase D Inhibitor, Blocks Prostate Cancer Cell Proliferation and Tumor Growth In Vivo by Inducing G2/M Cell Cycle Arrest” (PLoS ONE, 2015)", "type_in_all_cases": "biochemical", "key": {"protein kinase D1 (PKD1)": {"biological_target": "T1, protein kinase D1 (PKD1) (Homo sapiens, UniProt Q15139)", "T1 construct": "gene PRKD1; GST-tagged recombinant human PKD1", "T1 sequence (Q15139 1-912)": "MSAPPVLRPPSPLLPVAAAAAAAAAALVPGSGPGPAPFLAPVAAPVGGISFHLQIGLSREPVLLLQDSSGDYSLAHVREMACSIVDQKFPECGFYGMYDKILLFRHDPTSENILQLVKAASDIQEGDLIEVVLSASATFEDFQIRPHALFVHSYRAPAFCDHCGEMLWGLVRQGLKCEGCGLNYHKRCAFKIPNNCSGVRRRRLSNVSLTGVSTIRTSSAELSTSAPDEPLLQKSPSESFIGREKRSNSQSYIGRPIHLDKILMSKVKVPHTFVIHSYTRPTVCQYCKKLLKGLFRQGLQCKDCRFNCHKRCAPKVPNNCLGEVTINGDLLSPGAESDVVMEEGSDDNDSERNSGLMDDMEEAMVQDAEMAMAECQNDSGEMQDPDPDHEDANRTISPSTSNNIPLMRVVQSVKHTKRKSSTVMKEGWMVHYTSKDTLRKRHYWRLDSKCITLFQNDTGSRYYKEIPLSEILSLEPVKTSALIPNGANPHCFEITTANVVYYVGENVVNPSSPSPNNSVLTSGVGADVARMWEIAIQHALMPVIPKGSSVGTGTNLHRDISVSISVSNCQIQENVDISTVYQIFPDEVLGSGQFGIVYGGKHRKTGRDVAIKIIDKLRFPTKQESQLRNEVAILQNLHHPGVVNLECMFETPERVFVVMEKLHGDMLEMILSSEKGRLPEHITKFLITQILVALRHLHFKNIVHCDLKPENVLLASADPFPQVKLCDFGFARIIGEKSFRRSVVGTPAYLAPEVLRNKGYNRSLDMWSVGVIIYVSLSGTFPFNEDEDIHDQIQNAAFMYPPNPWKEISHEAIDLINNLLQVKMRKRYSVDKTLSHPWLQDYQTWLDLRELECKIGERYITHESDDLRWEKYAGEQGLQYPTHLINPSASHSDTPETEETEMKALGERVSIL", "test": "in vitro radiometric kinase assay, 10-point curve; Lineweaver-Burk"}, "PKD2": {"biological_target": "T2, PKD2 (Homo sapiens, UniProt Q9BZL6)", "T2 construct": "gene PRKD2; recombinant human PKD2", "T2 sequence (Q9BZL6 1-878)": "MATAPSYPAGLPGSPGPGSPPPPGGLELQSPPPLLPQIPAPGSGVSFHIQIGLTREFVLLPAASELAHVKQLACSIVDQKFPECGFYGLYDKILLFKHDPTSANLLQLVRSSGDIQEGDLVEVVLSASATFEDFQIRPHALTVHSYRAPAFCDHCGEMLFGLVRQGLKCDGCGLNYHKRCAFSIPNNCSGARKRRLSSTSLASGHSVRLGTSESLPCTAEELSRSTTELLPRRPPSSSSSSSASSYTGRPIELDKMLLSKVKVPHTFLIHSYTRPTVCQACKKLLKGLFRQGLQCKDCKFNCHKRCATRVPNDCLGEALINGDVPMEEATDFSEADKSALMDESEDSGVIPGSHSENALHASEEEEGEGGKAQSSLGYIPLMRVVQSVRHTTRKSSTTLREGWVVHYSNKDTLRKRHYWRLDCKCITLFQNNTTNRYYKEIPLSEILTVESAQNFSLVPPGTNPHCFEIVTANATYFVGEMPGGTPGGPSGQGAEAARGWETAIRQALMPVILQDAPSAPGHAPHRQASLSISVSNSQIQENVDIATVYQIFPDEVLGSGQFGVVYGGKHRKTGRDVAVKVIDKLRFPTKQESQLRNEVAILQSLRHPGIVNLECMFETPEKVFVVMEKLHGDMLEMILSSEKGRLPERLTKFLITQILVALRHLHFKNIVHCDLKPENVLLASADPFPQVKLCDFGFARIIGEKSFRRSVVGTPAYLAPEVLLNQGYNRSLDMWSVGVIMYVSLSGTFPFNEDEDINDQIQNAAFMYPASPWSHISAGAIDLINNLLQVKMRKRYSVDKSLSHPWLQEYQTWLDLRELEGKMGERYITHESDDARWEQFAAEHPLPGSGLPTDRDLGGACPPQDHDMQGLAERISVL", "test": "in vitro radiometric kinase assay, 10-point curve"}, "PKD3": {"biological_target": "T3, PKD3 (Homo sapiens, UniProt O94806)", "T3 construct": "gene PRKD3; recombinant human PKD3", "T3 sequence (O94806 1-890)": "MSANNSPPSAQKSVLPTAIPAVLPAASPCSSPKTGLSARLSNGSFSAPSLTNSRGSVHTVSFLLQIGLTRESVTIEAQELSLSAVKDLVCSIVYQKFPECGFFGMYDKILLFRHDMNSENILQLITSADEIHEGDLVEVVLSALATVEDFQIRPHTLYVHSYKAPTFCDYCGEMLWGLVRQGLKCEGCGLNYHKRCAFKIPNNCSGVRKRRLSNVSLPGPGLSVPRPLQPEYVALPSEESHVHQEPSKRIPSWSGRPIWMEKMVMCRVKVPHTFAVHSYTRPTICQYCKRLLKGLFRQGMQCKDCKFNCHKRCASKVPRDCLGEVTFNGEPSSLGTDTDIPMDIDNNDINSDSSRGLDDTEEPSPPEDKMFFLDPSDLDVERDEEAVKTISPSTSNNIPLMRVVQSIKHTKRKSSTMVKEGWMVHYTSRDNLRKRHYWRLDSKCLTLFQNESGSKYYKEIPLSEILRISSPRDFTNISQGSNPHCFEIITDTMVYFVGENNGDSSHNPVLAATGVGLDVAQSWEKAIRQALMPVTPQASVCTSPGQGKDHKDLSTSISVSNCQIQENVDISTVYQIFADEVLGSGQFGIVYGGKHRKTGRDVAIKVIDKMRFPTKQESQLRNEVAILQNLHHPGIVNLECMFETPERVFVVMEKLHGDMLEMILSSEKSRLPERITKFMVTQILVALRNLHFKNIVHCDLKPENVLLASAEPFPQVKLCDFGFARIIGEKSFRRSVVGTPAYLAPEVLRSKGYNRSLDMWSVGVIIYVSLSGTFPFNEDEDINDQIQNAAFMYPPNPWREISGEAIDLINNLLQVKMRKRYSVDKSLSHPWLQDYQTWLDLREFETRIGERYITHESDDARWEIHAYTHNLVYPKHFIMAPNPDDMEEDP", "test": "in vitro radiometric kinase assay, 10-point curve"}, "PKCδ": {"biological_target": "T4, PKCδ (Homo sapiens, UniProt Q05655)", "T4 construct": "gene PRKCD; recombinant PKCδ", "T4 sequence (Q05655 whole entry)": "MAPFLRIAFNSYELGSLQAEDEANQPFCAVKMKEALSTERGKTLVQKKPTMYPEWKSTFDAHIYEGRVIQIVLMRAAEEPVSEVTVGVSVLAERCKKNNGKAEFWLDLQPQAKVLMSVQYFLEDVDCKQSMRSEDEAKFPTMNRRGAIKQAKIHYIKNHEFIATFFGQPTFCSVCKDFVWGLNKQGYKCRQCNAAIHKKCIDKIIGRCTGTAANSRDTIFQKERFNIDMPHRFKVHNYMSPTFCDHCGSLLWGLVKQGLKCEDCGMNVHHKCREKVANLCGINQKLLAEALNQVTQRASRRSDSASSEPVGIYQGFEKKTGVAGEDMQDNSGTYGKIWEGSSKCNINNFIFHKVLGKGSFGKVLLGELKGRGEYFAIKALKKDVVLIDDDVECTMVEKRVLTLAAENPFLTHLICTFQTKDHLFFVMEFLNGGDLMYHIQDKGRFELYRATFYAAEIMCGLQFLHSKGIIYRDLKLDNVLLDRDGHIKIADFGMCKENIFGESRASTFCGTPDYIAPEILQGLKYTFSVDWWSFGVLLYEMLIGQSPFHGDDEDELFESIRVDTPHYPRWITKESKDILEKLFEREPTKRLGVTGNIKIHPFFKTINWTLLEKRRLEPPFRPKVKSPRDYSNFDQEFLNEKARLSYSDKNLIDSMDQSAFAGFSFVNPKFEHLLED", "test": "in vitro radiometric PKC kinase assay"}, "PKCα": {"biological_target": "T5, PKCα (Homo sapiens, UniProt P17252)", "T5 construct": "gene PRKCA; recombinant PKCα"}}, "data": [{"smiles": "Fc1ccc(Cl)cc1-c1nc(Nc2ccncc2)c2nccnc2n1", "note": "[SD-208]", "values": [{"measurement": "IC50", "setting": "protein kinase D1 (PKD1)", "value": 107, "unit": "nM"}, {"measurement": "IC50", "setting": "PKD2", "value": 93.5, "unit": "nM"}, {"measurement": "IC50", "setting": "PKD3", "value": 105, "unit": "nM"}]}, {"smiles": "CN(C)CCCn1cc(C2=C(c3c[nH]c4ccccc34)C(=O)NC2=O)c2ccccc21", "note": "[GF109203X]", "values": [{"measurement": "in vitro radiometric PKC kinase assay", "setting": "PKCδ", "value": "GF109203X was tested as a positive control and it potently and concentration-dependently inhibited PKCα and PKCδ"}, {"measurement": "in vitro radiometric PKC kinase assay", "setting": "PKCα", "value": "GF109203X was tested as a positive control and it potently and concentration-dependently inhibited PKCα and PKCδ"}]}]}
